Data taken from ChEMBL document CHEMBL3792311, “In vitro and in vivo activity of ML302F: a thioenolate inhibitor of VIM-subfamily metallo -lactamases” (Medchemcomm, 2016).
Active and inactive are the calls of the source. The rule behind the calls is not given here.

Assays:
Pseudomonas aeruginosa [1] = test: Potentiation of meropenem-induced antibacterial activity against VIM2 carbapenemase producing multidrug-resistant Pseudomonas aeruginosa 27 clinical isolate at 1:8 meropenem:compound ratio by checkerboard method; assay type: functional
Pseudomonas aeruginosa [2] = test: Antibacterial activity against VIM2 carbapenemase producing multidrug-resistant Pseudomonas aeruginosa 13 clinical isolate up to 512 mg/L by broth microtiter dilution method; assay type: functional, organism-based
Pseudomonas aeruginosa [3] = test: Antibacterial activity against VIM2 carbapenemase producing multidrug-resistant Pseudomonas aeruginosa GR57 clinical isolate infected in Galleria mellonella larvae assessed as survival rate at 4.8 mg/kg measured at 96 hrs; assay type: functional, organism-based
Providencia stuartii [4] = test: Antibacterial activity against VIM1 carbapenemase producing multidrug-resistant Providencia stuartii 70 clinical isolate up to 512 mg/L by broth microtiter dilution method; assay type: functional, organism-based
Klebsiella pneumoniae [5] = test: Antibacterial activity against VIM4 carbapenemase producing multidrug-resistant Klebsiella pneumoniae 196 clinical isolate up to 512 mg/L by broth microtiter dilution method; assay type: functional, organism-based
Pseudomonas aeruginosa [6] = test: Antibacterial activity against VIM2 carbapenemase producing multidrug-resistant Pseudomonas aeruginosa 15 clinical isolate up to 512 mg/L by broth microtiter dilution method; assay type: functional, organism-based
Pseudomonas aeruginosa [7] = test: Antibacterial activity against VIM2 carbapenemase producing multidrug-resistant Pseudomonas aeruginosa GR57 clinical isolate up to 512 mg/L by broth microtiter dilution method; assay type: functional, organism-based
Klebsiella pneumoniae [8] = test: Potentiation of meropenem-induced antibacterial activity against VIM4 carbapenemase producing multidrug-resistant Klebsiella pneumoniae 120 clinical isolate assessed as MIC of meropenem at 1:8 meropenem:compound ratio by broth microtiter dilution method; assay type: functional
Pseudomonas aeruginosa [9] = test: Potentiation of meropenem-induced antibacterial activity against VIM2 carbapenemase producing multidrug-resistant Pseudomonas aeruginosa 13 clinical isolate at 1:8 meropenem:compound ratio by checkerboard method; assay type: functional
Pseudomonas aeruginosa [10] = test: Potentiation of meropenem-induced antibacterial activity against VIM2 carbapenemase producing multidrug-resistant Pseudomonas aeruginosa 9 clinical isolate assessed as MIC of meropenem at 1:8 meropenem:compound ratio by broth microtiter dilution method; assay type: functional
Klebsiella pneumoniae [11] = test: Potentiation of meropenem-induced antibacterial activity against VIM1 carbapenemase producing multidrug-resistant Klebsiella pneumoniae GR54 clinical isolate at 1:8 meropenem:compound ratio by checkerboard method; assay type: functional
Pseudomonas aeruginosa [12] = test: Potentiation of meropenem-induced antibacterial activity against VIM2 carbapenemase producing multidrug-resistant Pseudomonas aeruginosa 13 clinical isolate assessed as MIC of meropenem at 1:8 meropenem:compound ratio by broth microtiter dilution method; assay type: functional
Pseudomonas aeruginosa [13] = test: Antibacterial activity against VIM2 carbapenemase producing multidrug-resistant Pseudomonas aeruginosa GR64 clinical isolate up to 512 mg/L by broth microtiter dilution method; assay type: functional, organism-based
Pseudomonas aeruginosa [14] = test: Potentiation of meropenem-induced antibacterial activity against VIM2 carbapenemase producing multidrug-resistant Pseudomonas aeruginosa GR64 clinical isolate at 1:8 meropenem:compound ratio by checkerboard method; assay type: functional
Pseudomonas aeruginosa [15] = test: Potentiation of meropenem-induced antibacterial activity against VIM2 carbapenemase producing multidrug-resistant Pseudomonas aeruginosa 15 clinical isolate assessed as MIC of meropenem at 1:8 meropenem:compound ratio by broth microtiter dilution method; assay type: functional
Klebsiella oxytoca [16] = test: Antibacterial activity against VIM4 carbapenemase producing multidrug-resistant Klebsiella oxytoca 95 clinical isolate up to 512 mg/L by broth microtiter dilution method; assay type: functional, organism-based
Klebsiella pneumoniae [17] = test: Potentiation of meropenem-induced antibacterial activity against VIM4 carbapenemase producing multidrug-resistant Klebsiella pneumoniae 196 clinical isolate at 1:8 meropenem:compound ratio by checkerboard method; assay type: functional
Pseudomonas aeruginosa [18] = test: Antibacterial activity against VIM2 carbapenemase producing multidrug-resistant Pseudomonas aeruginosa 27 clinical isolate up to 512 mg/L by broth microtiter dilution method; assay type: functional, organism-based
Pseudomonas aeruginosa [19] = test: Potentiation of meropenem-induced antibacterial activity against VIM2 carbapenemase producing multidrug-resistant Pseudomonas aeruginosa 30 clinical isolate assessed as MIC of meropenem at 1:8 meropenem:compound ratio by broth microtiter dilution method; assay type: functional
Pseudomonas aeruginosa [20] = test: Potentiation of meropenem-induced antibacterial activity against VIM2 carbapenemase producing multidrug-resistant Pseudomonas aeruginosa GR62 clinical isolate assessed as MIC of meropenem at 1:8 meropenem:compound ratio by broth microtiter dilution method; assay type: functional
Klebsiella pneumoniae [21] = test: Potentiation of meropenem-induced antibacterial activity against VIM1 carbapenemase producing multidrug-resistant Klebsiella pneumoniae 177 clinical isolate at 1:8 meropenem:compound ratio by checkerboard method; assay type: functional
Klebsiella pneumoniae [22] = test: Antibacterial activity against VIM1 carbapenemase producing multidrug-resistant Klebsiella pneumoniae 177 clinical isolate up to 512 mg/L by broth microtiter dilution method; assay type: functional, organism-based
Pseudomonas aeruginosa [23] = test: Potentiation of meropenem-induced antibacterial activity against VIM2 carbapenemase producing multidrug-resistant Pseudomonas aeruginosa GR64 clinical isolate assessed as MIC of meropenem at 1:8 meropenem:compound ratio by broth microtiter dilution method; assay type: functional
Pseudomonas aeruginosa [24] = test: Potentiation of meropenem-induced antibacterial activity against VIM2 carbapenemase producing multidrug-resistant Pseudomonas aeruginosa GR57 clinical isolate infected in Galleria mellonella larvae assessed as survival rate at 4.8 mg/kg measured at 96 hrs; assay type: functional; details: GR57, 96 h
Klebsiella pneumoniae [25] = test: Antibacterial activity against VIM4 carbapenemase producing multidrug-resistant Klebsiella pneumoniae 101 clinical isolate up to 512 mg/L by broth microtiter dilution method; assay type: functional, organism-based
Providencia stuartii [26] = test: Potentiation of meropenem-induced antibacterial activity against VIM1 carbapenemase producing multidrug-resistant Providencia stuartii 70 clinical isolate assessed as MIC of meropenem at 1:8 meropenem:compound ratio by broth microtiter dilution method; assay type: functional
Pseudomonas aeruginosa [27] = test: Potentiation of meropenem-induced antibacterial activity against VIM2 carbapenemase producing multidrug-resistant Pseudomonas aeruginosa 47 clinical isolate at 1:8 meropenem:compound ratio by checkerboard method; assay type: functional
Enterobacter cloacae = test: Potentiation of meropenem-induced antibacterial activity against VIM4 carbapenemase producing multidrug-resistant Enterobacter cloacae 102 clinical isolate assessed as MIC of meropenem at 1:8 meropenem:compound ratio by broth microtiter dilution method; assay type: functional
Pseudomonas aeruginosa [28] = test: Potentiation of meropenem-induced antibacterial activity against VIM2 carbapenemase producing multidrug-resistant Pseudomonas aeruginosa 14 clinical isolate at 1:8 meropenem:compound ratio by checkerboard method; assay type: functional
Providencia stuartii [29] = test: Potentiation of meropenem-induced antibacterial activity against VIM1 carbapenemase producing multidrug-resistant Providencia stuartii 67 clinical isolate assessed as MIC of meropenem at 1:8 meropenem:compound ratio by broth microtiter dilution method; assay type: functional
Escherichia coli = test: Potentiation of meropenem-induced antibacterial activity against VIM4 carbapenemase producing multidrug-resistant Escherichia coli 98 clinical isolate infected in Galleria mellonella larvae assessed as survival rate at 4.8 mg/kg measured at 96 hrs; assay type: functional; details: Escherichia coli, 98, 96 h
Pseudomonas aeruginosa [30] = test: Antibacterial activity against VIM2 carbapenemase producing multidrug-resistant Pseudomonas aeruginosa 3 clinical isolate up to 512 mg/L by broth microtiter dilution method; assay type: functional, organism-based
Pseudomonas aeruginosa [31] = test: Potentiation of meropenem-induced antibacterial activity against VIM2 carbapenemase producing multidrug-resistant Pseudomonas aeruginosa 3 clinical isolate at 1:8 meropenem:compound ratio by checkerboard method; assay type: functional
Klebsiella oxytoca [32] = test: Antibacterial activity against VIM4 carbapenemase producing multidrug-resistant Klebsiella oxytoca 126 clinical isolate up to 512 mg/L by broth microtiter dilution method; assay type: functional, organism-based
Pseudomonas aeruginosa [33] = test: Antibacterial activity against VIM2 carbapenemase producing multidrug-resistant Pseudomonas aeruginosa 14 clinical isolate up to 512 mg/L by broth microtiter dilution method; assay type: functional, organism-based
Pseudomonas aeruginosa [34] = test: Potentiation of meropenem-induced antibacterial activity against VIM2 carbapenemase producing multidrug-resistant Pseudomonas aeruginosa 9 clinical isolate at 1:8 meropenem:compound ratio by checkerboard method; assay type: functional

SMILES: O=C(O)/C(S)=C/c1c(Cl)ccc(Cl)c1Cl
- fractional inhibitory concentration index (FICI) (Pseudomonas aeruginosa [1]): 0.5
- Activity (Pseudomonas aeruginosa [2]): inactive
- Activity (Pseudomonas aeruginosa [3]): Active
- Activity (Providencia stuartii [4]): inactive
- Activity (Klebsiella pneumoniae [5]): inactive
- Activity (Pseudomonas aeruginosa [6]): inactive
- Activity (Pseudomonas aeruginosa [7]): inactive
- MIC (Klebsiella pneumoniae [8]): 2 µg/mL
- fractional inhibitory concentration index (FICI) (Pseudomonas aeruginosa [9]): 0.75
- MIC (Pseudomonas aeruginosa [10]): 16 µg/mL
- fractional inhibitory concentration index (FICI) (Klebsiella pneumoniae [11]): 0.09
- MIC (Pseudomonas aeruginosa [12]): 16 µg/mL
- Activity (Pseudomonas aeruginosa [13]): inactive
- fractional inhibitory concentration index (FICI) (Pseudomonas aeruginosa [14]): 0.19
- MIC (Pseudomonas aeruginosa [15]): 16 µg/mL
- Activity (Klebsiella oxytoca [16]): inactive
- fractional inhibitory concentration index (FICI) (Klebsiella pneumoniae [17]): 0.08
- Activity (Pseudomonas aeruginosa [18]): inactive
- MIC (Pseudomonas aeruginosa [19]): 8 µg/mL
- MIC (Pseudomonas aeruginosa [20]): 8 µg/mL
- fractional inhibitory concentration index (FICI) (Klebsiella pneumoniae [21]): 1.02
- Activity (Klebsiella pneumoniae [22]): inactive
- MIC (Pseudomonas aeruginosa [23]): 4 µg/mL
- survival at 4.8 mg/kg (Pseudomonas aeruginosa [24]): 81%
- Activity (Klebsiella pneumoniae [25]): inactive
- MIC (Providencia stuartii [26]): 1 µg/mL
- fractional inhibitory concentration index (FICI) (Pseudomonas aeruginosa [27]): 0.05
- MIC (Enterobacter cloacae): 4 µg/mL
- fractional inhibitory concentration index (FICI) (Pseudomonas aeruginosa [28]): 0.06
- MIC (Providencia stuartii [29]): 1 µg/mL
- survival at 4.8 mg/kg (Escherichia coli): 69%
- Activity (Pseudomonas aeruginosa [30]): inactive
- fractional inhibitory concentration index (FICI) (Pseudomonas aeruginosa [31]): 0.25
- Activity (Klebsiella oxytoca [32]): inactive
- Activity (Pseudomonas aeruginosa [33]): inactive
- fractional inhibitory concentration index (FICI) (Pseudomonas aeruginosa [34]): 0.38
